“And” between values parts separate entries of the source, which are not always exact repeats. Identical values can stand only once. Inconclusive results and toxic doses are left out.

The experiment relates to P388 leukemia ip, CD2F1 mice, survival T/C. Description: NCI In Vivo Anticancer Drug Screen. Data for tumor model P388 Leukemia (intraperitoneal) in CD2F1 (CDF1) mice. The settings on record: endpoint: median survival time, higher = longer survival. In short, it runs like this:
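Mice carrying the transplanted tumor received test compound or vehicle. Survival was recorded in each group, and the value is the treated-group measurement divided by that of the vehicle-treated control group.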

The mark [1] stands for this setting: dose: 50.0 mg/kg/injection, schedule: Q04DX003 (ip), vehicle: saline.
Where [2] appears, read: dose: 100.0 mg/kg/injection, schedule: Q04DX003 (ip), vehicle: saline with Tween-80.
[3] abbreviates: dose: 200.0 mg/kg/injection, schedule: Q04DX003 (ip), vehicle: saline with Tween-80.
Where [4] appears, read: dose: 50.0 mg/kg/injection, schedule: Q01DX009 (ip), vehicle: saline.
The mark [5] stands for this setting: dose: 100.0 mg/kg/injection, schedule: Q01DX009 (ip), vehicle: saline.
Where [6] appears, read: dose: 200.0 mg/kg/injection, schedule: Q01DX009 (ip), vehicle: saline.
Where [7] appears, read: dose: 60.0 mg/kg/injection, schedule: Q01DX005 (ip), vehicle: saline with Tween-80.
Where [8] appears, read: dose: 120.0 mg/kg/injection, schedule: Q01DX005 (ip), vehicle: saline with Tween-80.
Setting [9] is: dose: 240.0 mg/kg/injection, schedule: Q01DX005 (ip), vehicle: saline with Tween-80.
The mark [10] stands for this setting: dose: 50.0 mg/kg/injection, schedule: Q01DX009 (ip), vehicle: saline with Tween-80.
The mark [11] stands for this setting: dose: 100.0 mg/kg/injection, schedule: Q01DX009 (ip), vehicle: saline with Tween-80.
The mark [12] stands for this setting: dose: 200.0 mg/kg/injection, schedule: Q01DX009 (ip), vehicle: saline with Tween-80.
Setting [13] is: dose: 50.0 mg/kg/injection, schedule: Q01DX005 (ip), vehicle: Klucel (hydroxypropylcellulose) (HPC).
The mark [14] stands for this setting: dose: 100.0 mg/kg/injection, schedule: Q01DX005 (ip), vehicle: Klucel (hydroxypropylcellulose) (HPC).
[15] abbreviates: dose: 200.0 mg/kg/injection, schedule: Q01DX005 (ip), vehicle: Klucel (hydroxypropylcellulose) (HPC).
The mark [16] stands for this setting: dose: 12.5 mg/kg/injection, schedule: Q01DX009 (ip), vehicle: water.
[17] abbreviates: dose: 25.0 mg/kg/injection, schedule: Q01DX009 (ip), vehicle: water.
The mark [18] stands for this setting: dose: 50.0 mg/kg/injection, schedule: Q01DX009 (ip), vehicle: water.
The mark [19] stands for this setting: dose: 100.0 mg/kg/injection, schedule: Q01DX009 (ip), vehicle: water.
Where [20] appears, read: dose: 200.0 mg/kg/injection, schedule: Q01DX009 (ip), vehicle: water.
Where [21] appears, read: dose: 50.0 mg/kg/injection, schedule: Q01DX005 (ip), vehicle: saline with Tween-80.
Setting [22] is: dose: 100.0 mg/kg/injection, schedule: Q01DX005 (ip), vehicle: saline with Tween-80.
[23] abbreviates: dose: 200.0 mg/kg/injection, schedule: Q01DX005 (ip), vehicle: saline with Tween-80.

For `CC1(C)N=C(N)N=C(N)N1c1ccc(OCCOc2ccc(S(=O)(=O)F)cc2)c(Cl)c1`, the T/C is 159 % of control (dose: 12.5 mg/kg/injection, schedule: Q04DX003 (ip), vehicle: saline); 181 % of control and 185 % of control (dose: 25.0 mg/kg/injection, schedule: Q04DX003 (ip), vehicle: saline); 181 % of control and 185 % of control under setting [1]; 175 % of control under setting [2]; 190 % of control and 200 % of control (dose: 100.0 mg/kg/injection, schedule: Q04DX003 (ip), vehicle: saline); 162 % of control (dose: 132.0 mg/kg/injection, schedule: Q04DX003 (ip), vehicle: saline with Tween-80). Also, the T/C under setting [3] was 185 % of control and the T/C (dose: 200.0 mg/kg/injection, schedule: Q04DX003 (ip), vehicle: saline) was 109 % of control.

Turning to `CCOC(=O)C(CC(=O)O)=C(c1ccccc1)c1ccccc1`, the T/C is 107 % of control under setting [4], 100 % of control under setting [5] and 107 % of control under setting [6].

Regarding `CCCCCCCCCCCCCCN1CCCN(CCCCCCCCCCCCCC)CC1`, the T/C was 92 % of control under setting [7], 94 % of control under setting [8] and 88 % of control under setting [9].

Take `CCCNC(=O)NNC(=O)c1ccc(NC(=O)NCCC)cc1`: the T/C runs as follows: (dose: 50.0 mg/kg/injection, schedule: Q01DX009 (ip), vehicle: Klucel (hydroxypropylcellulose) (HPC)) 101 % of control; (dose: 100.0 mg/kg/injection, schedule: Q01DX009 (ip), vehicle: Klucel (hydroxypropylcellulose) (HPC)) 102 % of control; (dose: 200.0 mg/kg/injection, schedule: Q01DX009 (ip), vehicle: Klucel (hydroxypropylcellulose) (HPC)) 89 % of control.

Take `Cn1c(=O)c2cc(C#N)c(N)nc2n(C)c1=O`: the T/C (dose: 75.0 mg/kg/injection, schedule: Q01DX009 (ip), vehicle: saline with Tween-80) is 104 % of control; the T/C (dose: 150.0 mg/kg/injection, schedule: Q01DX009 (ip), vehicle: saline with Tween-80) is 96 % of control; the T/C (dose: 300.0 mg/kg/injection, schedule: Q01DX009 (ip), vehicle: saline with Tween-80) was 93 % of control.

As for `CSCCC(NC(=O)C(F)(F)F)C(=O)O` (centres undefined), the T/C was 106 % of control under setting [10], 94 % of control under setting [11] and 94 % of control under setting [12].

As for `C=CB(OCCC)OCCC`, the T/C under setting [4] was 92 % of control, the T/C under setting [5] was 92 % of control and the T/C under setting [6] is 88 % of control.

With `CSc1ncn(C)c1C(N)=O`, the T/C reads like this: under setting [13], 97 % of control; under setting [14], 99 % of control; under setting [15], 99 % of control.

Take `CC1=NNC2(CCCCC2)C1`: the T/C is 113 % of control under setting [16]; 103 % of control under setting [17]; 94 % of control under setting [18]; 111 % of control under setting [19]; 106 % of control under setting [20].

As to `COc1ccc(N2C(=O)C(=O)C(C(C)=O)C2=O)cc1` (centres undefined), the T/C was 100 % of control (dose: 100.0 mg/kg/injection, schedule: Q04DX002 (ip), vehicle: saline with Tween-80) and 94 % of control (dose: 200.0 mg/kg/injection, schedule: Q04DX002 (ip), vehicle: saline with Tween-80).

As for `CC(=O)Nc1cccn(C)c1=O`, the T/C was 100 % of control (dose: 6.25 mg/kg/injection, schedule: Q01DX009 (ip), vehicle: distilled water + Tween-80); 100 % of control (dose: 12.5 mg/kg/injection, schedule: Q01DX009 (ip), vehicle: distilled water + Tween-80); 98 % of control under setting [16]; 102 % of control (dose: 25.0 mg/kg/injection, schedule: Q01DX009 (ip), vehicle: distilled water + Tween-80); 123 % of control under setting [17]; 107 % of control (dose: 50.0 mg/kg/injection, schedule: Q01DX009 (ip), vehicle: distilled water + Tween-80). Also, the T/C by setting is: under setting [18], 112 % of control; (dose: 100.0 mg/kg/injection, schedule: Q01DX009 (ip), vehicle: distilled water + Tween-80) 120 % of control; under setting [19], 113 % of control; under setting [20], 112 % of control.

Take `CC(=O)c1cc(I)c(O)c2ncccc12`: the T/C is 97 % of control (dose: 6.25 mg/kg/injection, schedule: Q01DX009 (ip), vehicle: saline with Tween-80); 94 % of control (dose: 12.5 mg/kg/injection, schedule: Q01DX009 (ip), vehicle: saline with Tween-80); 98 % of control (dose: 25.0 mg/kg/injection, schedule: Q01DX009 (ip), vehicle: saline with Tween-80).

With `CCOC(=O)c1ccc(NC(=S)NC(=O)c2ccco2)o1`, the T/C was 92 % of control under setting [10], 100 % of control under setting [11] and 92 % of control under setting [12].

For the compound `Cc1nc(C(N)=O)c(=O)[nH]c1C`, the T/C runs as follows: (dose: 33.0 mg/kg/injection, schedule: Q04DX003 (ip), vehicle: saline) 100 % of control; under setting [1], 100 % of control; (dose: 75.0 mg/kg/injection, schedule: Q04DX003 (ip), vehicle: saline) 100 % of control; under setting [2], 100 % of control; under setting [3], 106 % of control; (dose: 400.0 mg/kg/injection, schedule: Q04DX003 (ip), vehicle: saline with Tween-80) 106 % of control.

With `Brc1ccc(C(Nc2nncs2)Nc2nncs2)cc1`, the T/C was 111 % of control under setting [7], 115 % of control under setting [8] and 107 % of control under setting [9].

Turning to `CSc1nccc(=O)n1-c1ccccc1C`, the T/C is, setting by setting: (dose: 100.0 mg/kg/injection, schedule: Q04DX002 (ip), vehicle: Klucel (hydroxypropylcellulose) (HPC)) 100 % of control; (dose: 200.0 mg/kg/injection, schedule: Q04DX002 (ip), vehicle: Klucel (hydroxypropylcellulose) (HPC)) 102 % of control.

For `CCOC(=O)C(Cc1ccc(O)c(C#N)c1)NC(C)=O` (centres undefined), the T/C reads like this: under setting [21], 97 % of control; under setting [22], 97 % of control; under setting [23], 95 % of control.

Take `CCCN(CCC)CCCCCO`: the T/C is 104 % of control (dose: 50.0 mg/kg/injection, schedule: Q04DX003 (ip), vehicle: saline with Tween-80); 100 % of control under setting [2]; 100 % of control under setting [3].

Turning to `CCOc1c(N=Nc2ccc(Cl)cc2)c(-c2ccccc2)nn1C(N)=S`, the T/C is, setting by setting: (dose: 50.0 mg/kg/injection, schedule: Q01DX005 (ip), vehicle: saline + Tween-80 + alcohol) 108 % of control; (dose: 100.0 mg/kg/injection, schedule: Q01DX005 (ip), vehicle: saline + Tween-80 + alcohol) 94 % of control; (dose: 200.0 mg/kg/injection, schedule: Q01DX005 (ip), vehicle: saline + Tween-80 + alcohol) 99 % of control.

In the case of `CP(=O)(NN)c1ccccc1` (centres undefined), the T/C under setting [16] was 89 % of control, the T/C under setting [17] is 96 % of control and the T/C under setting [18] was 101 % of control.

`Cc1cc(C)c(-c2c(Br)c(OC(=O)CO[C@@H]3C[C@H](C)CC[C@H]3C(C)C)c(-c3c(C)cc(C)c(Br)c3C)c(Br)c2OC(=O)CO[C@@H]2C[C@H](C)CC[C@H]2C(C)C)c(C)c1Br`: the T/C is, setting by setting: under setting [21], 107 % of control; under setting [22], 100 % of control; under setting [23], 88 % of control.

In the case of `NC(=O)c1n[nH]c(=S)[nH]c1=O`, the T/C is, setting by setting: under setting [13], 102 % of control; under setting [14], 91 % of control; under setting [15], 96 % of control.

On to `CS(=O)(=O)C12CCCN1C(=O)C1CCCN1C2=O` (centres undefined), for which the T/C is, setting by setting: under setting [4], 99 % of control; under setting [5], 102 % of control; under setting [6], 90 % of control.

For the origin of these results see PubChem BioAssay AID330 (DTP/NCI, 2004).
